# Measurements taken from ChEMBL document CHEMBL1914375, “New PDE4 inhibitors based on pharmacophoric similarity between papaverine and tofisopam” (Bioorg Med Chem Lett, 2011).
# Columns and labels:
# [1] = Inhibition of bovine aortic PDE4 using cAMP as substrate in presence of cGMP; parameters: species or system Bos taurus
# [2] = tested on: Endothelial cell; assay: Inhibition of bovine aortic endothelial cells PDE2 using cAMP as substrate at 10 uM in presence of cGMP; type: cell-based; settings: Bos taurus
# [3] = species: Bos taurus; assay: Inhibition of bovine aortic PDE1 using calmodulin activated cGMP as substrate at 10 uM
# [4] = target: cGMP-specific 3',5'-cyclic phosphodiesterase (Bos taurus) (UniProt Q28156); assay: Inhibition of bovine aortic PDE5 using cGMP as substrate at 10 uM in presence of EGTA
# [5] = species: Bos taurus; assay: Inhibition of bovine aortic PDE3 using cAMP as substrate at 10 uM in presence of rolipram
# [6] = species: Bos taurus; assay: Ratio of tofisopam IC50 to compound IC50 for bovine aortic PDE4 using cAMP as substrate in presence of cGMP
# [7] = Inhibition of bovine aortic endothelial cells PDE2 using cAMP as substrate in presence of cGMP; type: cell-based, Bos taurus; settings: endothelial cell
# [8] = target: cGMP-specific 3',5'-cyclic phosphodiesterase (Bos taurus, UniProt Q28156); assay: Inhibition of bovine aortic PDE5 using cGMP as substrate in presence of EGTA
# [9] = Competitive inhibition of bovine aortic PDE4 using cAMP as substrate by Lineweaver-Burk plot analysis; parameters: species or system Bos taurus
# [10] = Inhibition of bovine aortic PDE3 using cAMP as substrate in presence of rolipram; parameters: species or system Bos taurus
# [11] = species: Bos taurus
# Description: Activity of bovine aortic PDE4
SMILES,IC50 [1],other results
COc1cc2c(cc1OC)C(c1ccc(Cl)cc1)=NNC(=O)C2,1500 nM,
COc1cc2c(cc1OC)C(c1ccccc1)=NNC(=O)C2,7700 nM,
COc1cc2c(cc1OC)N(C)C(=O)CN=C2/C=C/c1ccccc1,8400 nM,
COc1cc2c(cc1OC)N(C)C(=O)CN=C2c1cccc(Cl)c1,> 20000 nM,
CCOc1cc2c(cc1OCC)C(CC)C(C)=NN=C2c1cccc(Cl)c1 (stereo not drawn),390 nM,inhibition [2]: 44%
CCOc1ccc(Cc2nccc3cc(OCC)c(OCC)cc23)cc1OCC [ETHAVERINE],400 nM,
COc1cc2c(cc1OC)C(c1cccc(Cl)c1)=NNC(=O)C2,7700 nM,
CCOc1cc2c(cc1OCC)C(c1ccccc1)=NNC(=O)C2,800 nM,inhibition [2]: 5%; inhibition [3]: 37%; inhibition [4]: 30%; inhibition [5]: 30%
COc1cc2c(cc1OC)N(C)C(=O)CN=C2c1cc2ccccc2s1,2300 nM,
CCOc1cc2c(cc1OCC)C(c1ccccc1)=NCC(=O)N2,950 nM,
CCOc1cc2c(cc1OCC)N(C)C(=O)CN=C2c1ccccc1,860 nM,
COc1cc2c(cc1OC)C(c1ccccc1)=NN(C)C(=O)C2,5100 nM,
COc1cc2c(cc1OC)C(c1ccccc1)=NCC(=O)N2,> 20000 nM,
COc1cc2c(cc1OC)N(C)C(=O)CN=C2N1CCCCC1,> 20000 nM,
CCOc1cc2c(cc1OCC)C(c1cc3ccccc3s1)=NNC(=O)C2,260 nM,
COc1cc2c(cc1OC)C(c1cc3ccccc3s1)=NN(C)C(=O)C2,300 nM,
COc1ccc(Cc2nccc3cc(OC)c(OC)cc23)cc1OC [PAPAVERINE],1100 nM,
COc1cc2c(cc1OC)N(C)C(=O)CN=C2CCc1ccccc1,> 20000 nM,
CCOc1cc2c(cc1OCC)C(c1cc3ccccc3s1)=NN(C)C(=O)C2,87 nM,Ratio IC50 [6]: 7
COc1ccc(C(=O)N2CCCCC2)cc1OC,9600 nM,
COc1cc2c(cc1OC)C(c1cccc(Cl)c1)=NN=C(C)C2 [GIRISOPAM],3200 nM,IC50 [7]: 4000 nM; IC50 [8]: 12500 nM; inhibition [5]: 22%
CCOc1ccc(C(=O)c2ccc(N(C)Cc3ccccc3)cc2)cc1OCC,2200 nM,

SMILES,IC50 [1],other results
CCOc1ccc(C(=O)N2CCCCC2)cc1OCC,3600 nM,
CCOc1ccc(C(=O)N2CCN(c3ccccc3)CC2)cc1OCC,17000 nM,
CCOc1ccc(C(=O)c2ccccc2Cl)cc1OCC,1400 nM,inhibition [2]: 46%; Ki [9]: 420 nM; inhibition [3]: 21%; inhibition [4]: 4%; inhibition [5]: 24%
COc1cc2c(cc1OC)C(c1cc3ccccc3s1)=NNC(=O)C2,1200 nM,
CCOc1ccc(C(=O)c2ccc(Cl)c(Cl)c2)cc1OCC,7900 nM,
CCOc1ccc(C2=NNC(=O)Cc3ccccc32)cc1OCC,190 nM,inhibition [2]: 27%; inhibition [3]: 3%; inhibition [4]: 17%; inhibition [5]: 12%
CCOc1ccc(C2=NN(C)C(=O)Cc3ccccc32)cc1OCC,140 nM,Ki [9]: 66 nM
COc1cc2c(cc1OC)N(C)C(=O)CN=C2c1ccc(Cl)cc1,> 20000 nM,
COc1cc2c(cc1OC)N(C)C(=O)CN=C2C#Cc1ccccc1,1600 nM,
CCOc1ccc(C(=O)c2ccc3ccccc3c2)cc1OCC,5000 nM,
COc1cc2c(cc1OC)N(C)C(=O)CN=C2c1ccccc1,18000 nM,
CCOc1cc2c(cc1OCC)C(c1ccc(Cl)cc1)=NNC(=O)C2,800 nM,
CCOc1ccc(C(=O)c2ccc(Cl)cc2)cc1OCC,> 20000 nM,
COc1cc2c(cc1OC)C(c1ccc3ccccc3c1)=NNC(=O)C2,1500 nM,
CCOc1cc2c(cc1OCC)C(c1cccc(Cl)c1)=NNC(=O)C2,1400 nM,
CCC1C(C)=NN=C(c2ccc(OC)c(OC)c2)c2cc(OC)c(OC)cc21 (stereo not drawn) [TOFISOPAM],680 nM,IC50 [10]: 5900 nM; IC50 [7]: 900 nM
CCOc1ccc(C(=O)N2CCN(Cc3ccccc3)CC2)cc1OCC,2300 nM,
CCOc1ccc(C(=O)c2cccc3ccccc23)cc1OCC,4300 nM,
COc1cc2c(cc1OC)C(c1ccc(Cl)c(Cl)c1)=NNC(=O)C2,300 nM,
CCOc1cc2c(cc1OCC)C(CC)C(C)=NN=C2c1ccc(Cl)cc1 (stereo not drawn),200 nM,inhibition [2]: 38%; inhibition [4]: 39%; inhibition [5]: 4%
Nc1ncnc2c1ncn2[C@@H]1O[C@@H]2COP(=O)(O)O[C@H]2[C@H]1O,,Km [11]: 0.71 µM
CCOc1ccc(C(=O)c2ccccc2)cc1OCC,2900 nM,
